Measurements taken from US11034654B2, “2,3-dihydroisoindole-1-carboxamides useful as ROR-gamma modulators” (AstraZeneca AB, priority 2017, dated 2021).

Experiments:
[1] = target: T1, RORγ ligand binding domain (Homo sapiens, UniProt P51449); experiment: RORγ radioligand competition binding assay (SPA); conditions: competition with tritiated 2-(4-(ethylsulfonyl)phenyl)-N-(4-(2-(methoxymethyl)phenyl)thiophen-2-yl)acetamide (25 nM), hRORγ LBD
Source text: RORγ Radioligand Competition Binding Assay The aim of this assay is to identify compounds which bind to the RORγ ligand binding domain, by competing with tritiated 2-(4-(ethylsulfonyl)phenyl)-N-(4-(2-(methoxymethyl)phenyl)thiophen-2-yl)acetamide. Human RORγ (Ligand Binding Domain (RORγ LBD) was expressed in E. coli (BL21DE3 Star) as a fusion protein: N-6×HN-Avi-GST-TCS-hRORγ LBD (S258-K518) subcloned into pET24a(+). The LBD (258-518) is underlined in the protein sequence: The scintillation proximity assay (SPA) was run in white polystyrene flat-bottom 384-well plates (Greiner, cat. No. 781075). Assays were carried out in 40 μl reaction volumes. Various concentrations of test ligands in 0.4 microlitres of DMSO were added to assay plates using an acoustic liquid dispenser. 4 nM purified N-(HN)6-GST-TCS-hRORγ (258-518) was mixed with 40 micrograms Yttrium oxide (YOx) glutathione SPA imaging beads in assay buffer (20 mM Tris, 150 mM NaCl, 10% Glycerol, 0.25% CHAPS, 1 mM TCEP) prior to adding 30 microlitres to test ligands. Assay plates were incubated for one hour at room temperature before adding 10 microlitres tritiated 2-(4-(ethylsulfonyl)phenyl)-N-(4-(2-(methoxymethyl)phenyl)thiophen-2-yl)acetamide to test plates in assay buffer (final concentration, 25 nM). Test plates were incubated for 16 hours and read using a LEADseeker Multimodality imaging instrument. The raw data was analysed and IC50 and Ki values for the compounds were calculated using Genedata Screener software. Raw data was transformed to % effect using equation 1: Compound % effect=100*[(X−min)/(max−min)], where X represents the normalized value for the compound based on the Min (vehicle) and Max (reference compound) inhibition controls. The concentration of test ligand that inhibited radioligand binding by 50% (i.e., the IC50) was calculated by plotting the % effect versus test ligand concentration and fitting the data using the Genedata Screener Smart fit algorithm. Ki is calculated from the IC50 value using the equation Ki=IC50/1+[L]/Kd) where [L]=25 nmol/L and Kd=17 nmol/L

[2] = target: T1, RORγ ligand binding domain; experiment: RORγ co-factor recruitment assay (FRET); type: biochemical; parameters: made in house; host or cells: E. coli BL21DE3 Star; conditions: inhibition of recruitment of SRC-1 peptide (NCOA1_677-700) to hRORγ LBD, HTRF read-out
Source text: RORγ Co-Factor Recruitment Assay A high throughput coactivator binding assay for the identification of inverse agonists of the recruitment of peptide SRC-1 (NCOA1_677-_700) to the RORγ ligand binding domain was established. The ligand binding domain (LBD) of human RORγ was expressed in E. coli (BL21DE3 Star) as a fusion protein: N-6×HN-MBP-Avi-TCS-hRORγLBD(P260-K518) subcloned into pET24a(+). The LBD (P260-K518) is underlined in the protein sequence: The assay was run in black 384 well plates (Greiner cat no: 784900). Various concentrations of test ligands in 0.1 microlitres DMSO were dispensed to assay plates using an Echo acoustic dispenser. Two pre-mixes were prepared and incubated for 1 h at room temp in the dark. Pre-mix 1 comprised 100 nM Protein (Biotinylated HN-Avi-MBP-TCS-hRORγ (258-518)) and 60 nM Streptavidin APC in assay buffer, 50 mM MOPS pH7.4, 50 mM KF, 0.003% (w/v) CHAPS, 10 mM DTT and 0.01% (w/v) BSA and pre-mix 2 comprised 160 nM biotinylated SRC-1 peptide (NCOA1-677-700) and 20 nM Europium-W8044 labelled Streptavidin in assay buffer. Five microlitres of pre-mix 2 was dispensed to assay plates containing 0.1 microlitres of test compound and was incubated for 15 min prior to adding five microlitres of pre-mix 1. Plates were incubated at rt for 1 hour in the dark, prior to reading in a Pherastar multi-mode plate reader using HTRF filter set (ex 320, em 612 and 665). The FRET signal at 665 nm was divided by the signal at 612 nm and multiplied by 10,000 to generate a signal ratio value for each well. The raw data was transformed to % effect using the equation: Compound % effect=100*[(X−min)/(max−min)], where X represents the normalized value for the compound based on the Min (vehicle) and Max (reference compound) inhibition control. The concentration of test ligand that inhibited the activity by 50% (i.e., the IC50) was calculated by plotting the % effect versus test ligand concentration and fitting the data using the Genedata Screener Smart fit algorithm.

SMILES | IC50 [1] [nM] | IC50 [2] [nM]
CC(=O)N1Cc2cc(S(C)(=O)=O)ccc2C1C(=O)Nc1ccc(C(NCCS(C)(=O)=O)(C(F)(F)F)C(F)(F)F)cc1 (centres unmarked) [Example 26, 2-Acetyl-N-[4-(1,1,1,3,3,3-hexafluoro-2-{[2-(methylsulfonyl)ethyl]amino}propan-2-yl)phenyl]-5-(methylsulfonyl)-2,3-dihydro-1H-isoindole-1-carboxamide] | 631 | 1000
CC(=O)N1Cc2cc(S(C)(=O)=O)ccc2C1C(=O)Nc1ccc(C(n2ccnn2)(C(F)(F)F)C(F)(F)F)cc1 (centres unmarked) [Example 29, 2-Acetyl-N-{4-[1,1,1,3,3,3-hexafluoro-2-(1H-1,2,3-triazol-1-yl)propan-2-yl]phenyl}-5-(methylsulfonyl)-2,3-dihydro-1H-isoindole-1-carboxamide] | 39.8 | 100
COCC(=O)N1Cc2cc(S(C)(=O)=O)ccc2C1C(=O)Nc1ccc(C(C#N)(C(F)(F)F)C(F)(F)F)cc1 (centres unmarked) [Example 8, N-[4-(2-Cyano-1,1,1,3,3,3-hexafluoropropan-2-yl)phenyl]-2-(methoxyacetyl)-5-(methylsulfonyl)-2,3-dihydro-1H-isoindole-1-carboxamide] | 12.6 | 50.1
CC(=O)N1Cc2cc(S(C)(=O)=O)ccc2C1C(=O)Nc1ccc(C(CC(=O)OC(C)(C)C)(C(F)(F)F)C(F)(F)F)cc1 (centres unmarked) [Example 44, tert-Butyl 3-[4-({[2-acetyl-5-(methylsulfonyl)-2,3-dihydro-1H-isoindol-1-yl]carbonyl}amino)phenyl]-4,4,4-trifluoro-3-(trifluoromethyl)butanoate] | 15.8 | > 31600
CS(=O)(=O)c1ccc2c(c1)CN(C(=O)CN)C2C(=O)Nc1ccc(C(C#N)(C(F)(F)F)C(F)(F)F)cc1 (centres unmarked) [Example 10, N-[4-(2-Cyano-1,1,1,3,3,3-hexafluoropropan-2-yl)phenyl]-2-glycyl-5-(methylsulfonyl)-2,3-dihydro-1H-isoindole-1-carboxamide] | 25.1 | 79.4
CC(=O)N1Cc2cc(S(C)(=O)=O)ccc2C1C(=O)Nc1ccc(C(CC(=O)N2CC(C)(F)C2)(C(F)(F)F)C(F)(F)F)cc1 (centres unmarked) [Example 39, 2-Acetyl-5-(methylsulfonyl)-N-{4-[1,1,1-trifluoro-4-(3-fluoro-3-methylazetidin-1-yl)-4-oxo-2-(trifluoromethyl)butan-2-yl]phenyl}-2,3-dihydro-1H-isoindole-1-carboxamide] | 398 | > 31600
CNC(c1ccc(NC(=O)C2c3ccc(S(C)(=O)=O)cc3CN2C(C)=O)cc1)(C(F)(F)F)C(F)(F)F (centres unmarked) [Example 24, 2-Acetyl-N-{4-[1,1,1,3,3,3-hexafluoro-2-(methylamino)propan-2-yl]phenyl}-5-(methylsulfonyl)-2,3-dihydro-1H-isoindole-1-carboxamide] | 31.6 | 50.1
COC(=O)N1Cc2cc(S(C)(=O)=O)ccc2C1C(=O)Nc1ccc(C(C#N)(C(F)(F)F)C(F)(F)F)cc1 (centres unmarked) [Example 7, Methyl 1-{[4-(2-cyano-1,1,1,3,3,3-hexafluoropropan-2-yl)phenyl]carbamoyl}-5-(methylsulfonyl)-1,3-dihydro-2H-isoindole-2-carboxylate] | 12.6 | 50.1
CS(=O)(=O)c1ccc2c(c1)CN(C(=O)CCN)C2C(=O)Nc1ccc(C(C#N)(C(F)(F)F)C(F)(F)F)cc1 (centres unmarked) [Example 11, 2-(3-Aminopropanoyl)-N-[4-[1-cyano-2,2,2-trifluoro-1-(trifluoromethyl)ethyl]phenyl]-5-methylsulfonyl-isoindoline-1-carboxamide] | 25.1 | 158

Second part, the compound after the results:

IC50 [1] [nM] | IC50 [2] [nM] | SMILES
12.6 | > 31600 | CC(=O)N1Cc2cc(S(C)(=O)=O)ccc2C1C(=O)Nc1ccc(C(CC(=O)OC(C)C)(C(F)(F)F)C(F)(F)F)cc1 (centres unmarked) [Example 40, Propan-2-yl 3-[4-({[2-acetyl-5-(methylsulfonyl)-2,3-dihydro-1H-isoindol-1-yl]carbonyl}amino)phenyl]-4,4,4-trifluoro-3-(trifluoromethyl)butanoate]
10 | 39.8 | CS(=O)(=O)c1ccc2c(c1)CN(C=O)C2C(=O)Nc1ccc(C(C#N)(C(F)(F)F)C(F)(F)F)cc1 (centres unmarked) [Example 6, N-[4-(2-Cyano-1,1,1,3,3,3-hexafluoropropan-2-yl)phenyl]-2-formyl-5-(methylsulfonyl)-2,3-dihydro-1H-isoindole-1-carboxamide]
10 | 100 | CS(=O)(=O)c1ccc2c(c1)CN(C(=O)CCC(=O)O)C2C(=O)Nc1ccc(C(C#N)(C(F)(F)F)C(F)(F)F)cc1 (centres unmarked) [Example 9, 4-[1-{[4-(2-Cyano-1,1,1,3,3,3-hexafluoropropan-2-yl)phenyl]carbamoyl}-5-(methylsulfonyl)-1,3-dihydro-2H-isoindol-2-yl]-4-oxobutanoic acid]
7.94 | > 31600 | CC(=O)N1Cc2cc(S(C)(=O)=O)ccc2C1C(=O)Nc1ccc(C(NCCOC(C)C)(C(F)(F)F)C(F)(F)F)cc1 (centres unmarked) [Example 27, 2-Acetyl-N-[4-(1,1,1,3,3,3-hexafluoro-2-{[2-(propan-2-yloxy)ethyl]amino}propan-2-yl)phenyl]-5-(methylsulfonyl)-2,3-dihydro-1H-isoindole-1-carboxamide]
6.31 | 39.8 | CCCNC(c1ccc(NC(=O)C2c3ccc(S(C)(=O)=O)cc3CN2C(C)=O)cc1)(C(F)(F)F)C(F)(F)F (centres unmarked) [Example 16, 2-Acetyl-N-{4-[1,1,1,3,3,3-hexafluoro-2-(propylamino)propan-2-yl]phenyl}-5-(methylsulfonyl)-2,3-dihydro-1H-isoindole-1-carboxamide]
6.31 | 39.8 | CC(=O)N1Cc2cc(S(C)(=O)=O)ccc2C1C(=O)Nc1ccc(C(N(C)C)(C(F)(F)F)C(F)(F)F)cc1 (centres unmarked) [Example 25, 2-Acetyl-N-{4-[2-(dimethylamino)-1,1,1,3,3,3-hexafluoropropan-2-yl]phenyl}-5-(methylsulfonyl)-2,3-dihydro-1H-isoindole-1-carboxamide]
7.94 | 39.8 | COC(c1ccc(NC(=O)C2c3ccc(S(C)(=O)=O)cc3CN2C(C)=O)cc1)(C(F)(F)F)C(F)(F)F (centres unmarked) [Example 28, 2-Acetyl-N-[4-(1,1,1,3,3,3-hexafluoro-2-methoxypropan-2-yl)phenyl]-5-(methylsulfonyl)-2,3-dihydro-1H-isoindole-1-carboxamide]
